Test results from ChEMBL document CHEMBL1201862, “PubChem BioAssay data set” (2004).
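Each compound was tested at five concentrations against cells in 96-well plates for 48 hours. Abbreviation: GI50, concentration required for 50% inhibition of growth.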 Calls of active or inactive are those of the source. No stated cut-off is given here; in the data, active = GI50 up to about 1.1 µM and inactive = higher.

Legend:
Assay in all cases: growth of human tumour cells (NCI), 48 h
786-0 = test system: 786-0
BT-549 = test system: BT-549
DU-145 = test system: DU-145
HL-60 = test system: HL-60
KM12 = test system: KM12
MCF7 = test system: MCF7
MDA-MB-231 = test system: MDA-MB-231
MOLT-4 = test system: MOLT-4
NCI-H522 = test system: NCI-H522
NCI/ADR-RES = test system: NCI/ADR-RES
OVCAR-4 = test system: OVCAR-4
OVCAR-5 = test system: OVCAR-5
RPMI-8226 = test system: RPMI-8226
SK-MEL-28 = test system: SK-MEL-28
SW-620 = test system: SW-620
RXF 393 = test system: RXF 393

Compound | GI50 (786-0) | GI50 (BT-549) | GI50 (DU-145) | GI50 (HL-60) | GI50 (KM12) | GI50 (MCF7) | GI50 (MDA-MB-231) | GI50 (MOLT-4) | GI50 (NCI-H522) | GI50 (NCI/ADR-RES) | GI50 (OVCAR-4) | GI50 (OVCAR-5) | GI50 (RPMI-8226) | GI50 (SK-MEL-28) | GI50 (SW-620) | GI50 (RXF 393)
Clc1ccc(COC(Cn2ccnc2)c2ccc(Cl)cc2Cl)c(Cl)c1 (stereo not drawn) [MICONAZOLE] | 7.33 µM (inactive) | 15 µM (inactive) | 15.7 µM (inactive) | 3.78 µM (inactive) | 11.8 µM (inactive) | 10.9 µM (inactive) | 12.6 µM (inactive) | 4.33 µM (inactive) | 10 µM (inactive) | 6.1 µM (inactive) | 10.1 µM (inactive) | 17.7 µM (inactive) | 8.65 µM (inactive) | 17.1 µM (inactive) | 12.1 µM (inactive) | 
CC1(C)C(O)c2ccccc2OC1N1CCN(C2Oc3ccccc3C(O)C2(C)C)CC1 (stereo not drawn) | > 100 µM (inactive) |  | > 100 µM (inactive) | > 100 µM (inactive) | > 100 µM (inactive) | > 100 µM (inactive) | > 100 µM (inactive) | > 100 µM (inactive) | > 100 µM (inactive) | > 100 µM (inactive) | > 100 µM (inactive) | > 100 µM (inactive) | > 100 µM (inactive) | > 100 µM (inactive) | > 100 µM (inactive) | > 100 µM (inactive)
COc1ccc(OC)c2c1ccc1c(C)c3ccccc3c(C)c12 | > 100 µM (inactive) | > 100 µM (inactive) | > 100 µM (inactive) | 57.1 µM (inactive) |  | 20.9 µM (inactive) | 16 µM (inactive) | 88.9 µM (inactive) | 75.9 µM (inactive) |  | 79.4 µM (inactive) | > 100 µM (inactive) | > 100 µM (inactive) | > 100 µM (inactive) |  | 
Nc1nc(O)c(N)c(NCCOCP(=O)(O)O)n1 | > 100 µM (inactive) | > 74.8 µM (inactive) | > 100 µM (inactive) | > 84.1 µM (inactive) |  | > 100 µM (inactive) | > 100 µM (inactive) | > 100 µM (inactive) |  | > 100 µM (inactive) | > 100 µM (inactive) | > 100 µM (inactive) | > 100 µM (inactive) | > 100 µM (inactive) | > 100 µM (inactive) | > 100 µM (inactive)
CC1(C)COC(c2ccc(C(=O)c3ccc(Cl)cc3)cc2)=N1 | > 100 µM (inactive) |  | > 100 µM (inactive) | 43.5 µM (inactive) | > 100 µM (inactive) | 86.5 µM (inactive) | > 100 µM (inactive) | 98.2 µM (inactive) | > 100 µM (inactive) | 92.7 µM (inactive) |  | > 100 µM (inactive) | > 100 µM (inactive) | > 100 µM (inactive) | > 100 µM (inactive) | 79.6 µM (inactive)
Cc1nnc2c3c(-c4ccccc4)c(-c4ccccc4)oc3nc(N(C)C)n12 | 90.4 µM (inactive) |  | > 100 µM (inactive) | 22.4 µM (inactive) | 26.7 µM (inactive) | 33.3 µM (inactive) | > 100 µM (inactive) | 22.9 µM (inactive) | 97.9 µM (inactive) | > 100 µM (inactive) | > 100 µM (inactive) | 51.5 µM (inactive) | 20.1 µM (inactive) | 72.1 µM (inactive) | 44.6 µM (inactive) | 73.5 µM (inactive)
O=[N+]([O-])c1ccc(C(c2c[nH]c3ccccc23)c2c[nH]c3ccccc23)cc1 | 14.3 µM (inactive) | 4.97 µM (inactive) | 4.47 µM (inactive) | 17.7 µM (inactive) | 6.24 µM (inactive) | 2.24 µM (inactive) | 12.4 µM (inactive) | 9.66 µM (inactive) |  | 11 µM (inactive) | 12 µM (inactive) | 23.6 µM (inactive) | 1.45 µM (inactive) | 18.5 µM (inactive) | 12.4 µM (inactive) | 
CC1(C)[C@H]2CC[C@@]13C(=O)N1C(=O)O[C@@H]([C@H]1Cl)C(Cl)(COCc1ccccc1)C(=O)OCCO[C@H]3C2 (stereo partly drawn) | 70 µM (inactive) | 61.2 µM (inactive) |  | 35.2 µM (inactive) | 63.7 µM (inactive) | 44.2 µM (inactive) |  | 21 µM (inactive) | 34.8 µM (inactive) | 59.4 µM (inactive) | 40.6 µM (inactive) | > 100 µM (inactive) | 28.2 µM (inactive) | > 100 µM (inactive) | 66.8 µM (inactive) | 
N[C@@H](Cc1ccccc1)C(=O)N1CCC[C@@H]1P(=O)(Oc1ccccc1)Oc1ccccc1 | > 100 µM (inactive) | > 100 µM (inactive) | > 100 µM (inactive) | > 100 µM (inactive) | > 100 µM (inactive) | > 100 µM (inactive) | > 100 µM (inactive) | 60.3 µM (inactive) |  | > 100 µM (inactive) | > 100 µM (inactive) | > 100 µM (inactive) | 96.4 µM (inactive) | > 100 µM (inactive) | > 100 µM (inactive) | > 100 µM (inactive)
Nc1c(-c2nc3ccccc3s2)c2ccc([N+](=O)[O-])cc2c(=O)n1-c1cccc(C(=O)O)c1 | 31.7 µM (inactive) | 20.1 µM (inactive) | 23.3 µM (inactive) | 18.1 µM (inactive) | 40.6 µM (inactive) |  | 17.9 µM (inactive) |  | 37.8 µM (inactive) | 33.1 µM (inactive) | 31.9 µM (inactive) |  |  | 21.4 µM (inactive) | 29.1 µM (inactive) | 
Cc1cn(CC2=NCCCN2)c(=O)[nH]c1=O | > 100 µM (inactive) | > 100 µM (inactive) | > 100 µM (inactive) |  |  | > 100 µM (inactive) | > 100 µM (inactive) | > 100 µM (inactive) | > 100 µM (inactive) | > 100 µM (inactive) |  | > 100 µM (inactive) | > 100 µM (inactive) | > 100 µM (inactive) | > 100 µM (inactive) | > 100 µM (inactive)
c1ccc2c3nnc(c2c1)SCCCSc1nnc(c2ccccc12)SCCCS3 | 54.1 µM (inactive) |  | 33.7 µM (inactive) | > 100 µM (inactive) | > 100 µM (inactive) | > 100 µM (inactive) | 17.2 µM (inactive) | > 100 µM (inactive) | 42.5 µM (inactive) | 33.4 µM (inactive) | 23.4 µM (inactive) | > 100 µM (inactive) | > 100 µM (inactive) | 44.7 µM (inactive) | > 100 µM (inactive) | 33.3 µM (inactive)
Cc1cc2c(cc1O)CC[C@@H]1[C@@H]2CC[C@]2(C)[C@@H](O)CC[C@@H]12 | 14.6 µM (inactive) | 6.27 µM (inactive) |  | 1.73 µM (inactive) | 4.52 µM (inactive) | 8.85 µM (inactive) | 9.38 µM (inactive) | 3.68 µM (inactive) | 7.45 µM (inactive) | 5.77 µM (inactive) | 12.4 µM (inactive) | 21.2 µM (inactive) | 4.74 µM (inactive) | 10.8 µM (inactive) | 4.28 µM (inactive) | 
CCOP(=O)(OCC)C(Nc1ccc(Br)cc1)c1cccc([N+](=O)[O-])c1 (stereo not drawn) | 20.4 µM (inactive) |  | 32.8 µM (inactive) | 20 µM (inactive) | 12.6 µM (inactive) |  | 15 µM (inactive) | 17 µM (inactive) | 13.6 µM (inactive) | 13.5 µM (inactive) | 21.4 µM (inactive) | 24.1 µM (inactive) | 28.2 µM (inactive) | 15.2 µM (inactive) | 16.9 µM (inactive) | 14.4 µM (inactive)
CC(C)(C)OC(=O)NC1CCCC1C(=O)C1=CCCC1 (stereo not drawn) | > 100 µM (inactive) | > 100 µM (inactive) | > 100 µM (inactive) | > 100 µM (inactive) | 92 µM (inactive) |  | 82.8 µM (inactive) | > 100 µM (inactive) |  | > 100 µM (inactive) | 49.1 µM (inactive) | > 100 µM (inactive) | > 100 µM (inactive) | > 100 µM (inactive) | > 100 µM (inactive) | > 100 µM (inactive)
CCOP(=O)(OCC)/C(C#N)=C/c1ccc(-c2cc(C(F)(F)F)cc(C(F)(F)F)c2)o1 | 12.2 µM (inactive) | 25.7 µM (inactive) | 14.6 µM (inactive) | 3.4 µM (inactive) |  | 6.3 µM (inactive) | 13.7 µM (inactive) | 3.71 µM (inactive) | 10.4 µM (inactive) | 9.82 µM (inactive) |  | 13.3 µM (inactive) | 3.59 µM (inactive) | 16.9 µM (inactive) | 14.9 µM (inactive) | 
CCN(CC)CC1CCCCN1CC(=O)N1c2ccccc2C(=O)Nc2cccnc21 (stereo not drawn) [OTENZEPAD] | 35.4 µM (inactive) |  | > 100 µM (inactive) | 17.4 µM (inactive) | 66.7 µM (inactive) | 27.9 µM (inactive) | 32.1 µM (inactive) | 21 µM (inactive) | > 100 µM (inactive) | 20.8 µM (inactive) | 38.9 µM (inactive) | 83.2 µM (inactive) | 35.6 µM (inactive) | > 100 µM (inactive) | 36.7 µM (inactive) | > 100 µM (inactive)
COc1cc(OC)c(C/C=C/c2ccccc2)cc1O | 18.2 µM (inactive) | 16.1 µM (inactive) | 17.1 µM (inactive) | 19.3 µM (inactive) | 17.7 µM (inactive) |  | 17.9 µM (inactive) | 11.8 µM (inactive) | 12.6 µM (inactive) | 14.5 µM (inactive) | 14 µM (inactive) | 26.6 µM (inactive) | 14.9 µM (inactive) | 16.6 µM (inactive) | 18.9 µM (inactive) | 
COc1ccc(-n2nnc3c(C#N)c(C)c(-c4ccccc4)n3c2=O)cc1 | 1.94 µM (inactive) | 5.92 µM (inactive) | 1.62 µM (inactive) |  | 2.71 µM (inactive) | 3.8 µM (inactive) | 10.3 µM (inactive) | 0.455 µM (active) |  | 2.84 µM (inactive) | > 75.2 µM (inactive) | 3.33 µM (inactive) | 1.99 µM (inactive) | 2.4 µM (inactive) |  | 2.2 µM (inactive)
